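Method: 48-hour compound exposure of cells in 96-well plates, five concentrations, linear interpolation of endpoints. GI50 marks 50% less growth. Definition used: TGI = concentration required for complete inhibition of growth.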
Assays:
Assay in all cases: NCI anticancer screen, dose series, 48 h
786-0 renal = tested on: 786-0 renal
A498 renal = tested on: A498 renal
A549 NSCLC = tested on: A549 NSCLC
ACHN renal = tested on: ACHN renal
BT-549 breast = tested on: BT-549 breast
CAKI-1 renal = tested on: CAKI-1 renal
CCRF-CEM leukemia = tested on: CCRF-CEM leukemia
COLO 205 colon = tested on: COLO 205 colon
DU-145 prostate = tested on: DU-145 prostate
EKVX NSCLC = tested on: EKVX NSCLC
HCC-2998 colon = tested on: HCC-2998 colon
HCT-116 colon = tested on: HCT-116 colon
HCT-15 colon = tested on: HCT-15 colon
HL-60(TB) leukemia = tested on: HL-60(TB) leukemia
HOP-62 NSCLC = tested on: HOP-62 NSCLC
HOP-92 NSCLC = tested on: HOP-92 NSCLC
HS 578T breast = tested on: HS 578T breast
HT29 colon = tested on: HT29 colon
IGROV1 ovarian = tested on: IGROV1 ovarian
K-562 leukemia = tested on: K-562 leukemia
KM12 colon = tested on: KM12 colon
LOX IMVI melanoma = tested on: LOX IMVI melanoma
M14 melanoma = tested on: M14 melanoma
MALME-3M melanoma = tested on: MALME-3M melanoma
MCF7 breast = tested on: MCF7 breast
MDA-MB-231 breast = tested on: MDA-MB-231 breast
MDA-MB-435 = tested on: MDA-MB-435
MOLT-4 leukemia = tested on: MOLT-4 leukemia
NCI-H226 lung = tested on: NCI-H226 lung
NCI-H23 lung = tested on: NCI-H23 lung
NCI-H460 lung = tested on: NCI-H460 lung
NCI-H522 lung = tested on: NCI-H522 lung
NCI/ADR-RES ovarian = tested on: NCI/ADR-RES ovarian
OVCAR-3 ovarian = tested on: OVCAR-3 ovarian
OVCAR-4 ovarian = tested on: OVCAR-4 ovarian
OVCAR-5 ovarian = tested on: OVCAR-5 ovarian
OVCAR-8 ovarian = tested on: OVCAR-8 ovarian
PC-3 prostate = tested on: PC-3 prostate
RPMI-8226 leukemia = tested on: RPMI-8226 leukemia
RXF 393 renal = tested on: RXF 393 renal
SF-268 CNS = tested on: SF-268 CNS
SF-295 CNS = tested on: SF-295 CNS
SF-539 CNS = tested on: SF-539 CNS
SK-MEL-2 melanoma = tested on: SK-MEL-2 melanoma
SK-MEL-28 melanoma = tested on: SK-MEL-28 melanoma
SK-MEL-5 melanoma = tested on: SK-MEL-5 melanoma
SK-OV-3 ovarian = tested on: SK-OV-3 ovarian
SN12C renal = tested on: SN12C renal
SNB-19 CNS = tested on: SNB-19 CNS
SNB-75 CNS = tested on: SNB-75 CNS
SR leukemia = tested on: SR leukemia
SW-620 colon = tested on: SW-620 colon
T-47D breast = tested on: T-47D breast
TK-10 renal = tested on: TK-10 renal
U251 CNS = tested on: U251 CNS
UACC-257 melanoma = tested on: UACC-257 melanoma
UACC-62 melanoma = tested on: UACC-62 melanoma
UO-31 renal = tested on: UO-31 renal

Q: How did the GI50 (786-0 renal) turn out when `CN1CCN(c2ccc(NC(=O)Nc3ccc4c(ccn4-c4cccc(C(N)=O)n4)c3)cc2C(F)(F)F)CC1` was run?
A: 0.834 µM

Q: And the TGI (786-0 renal)?
A: 2 µM

Q: What about the GI50 (A498 renal) of the same compound?
A: 7.74 µM

Q: And the TGI (A498 renal)?
A: 14.8 µM

Q: What about the GI50 (A549 NSCLC) of the same compound?
A: 5.2 µM

Q: What about the TGI (A549 NSCLC) of the same compound?
A: 13.3 µM

Q: And the GI50 (ACHN renal)?
A: 6.95 µM

Q: And the TGI (ACHN renal)?
A: 14.1 µM

Q: What about the GI50 (BT-549 breast) of the same compound?
A: 5.21 µM

Q: What about the TGI (BT-549 breast) of the same compound?
A: 12.5 µM

Q: And the GI50 (CAKI-1 renal)?
A: 6.47 µM

Q: What about the TGI (CAKI-1 renal) of the same compound?
A: 13.5 µM

Q: What about the GI50 (CCRF-CEM leukemia) of the same compound?
A: 1.4 µM

Q: What about the TGI (CCRF-CEM leukemia) of the same compound?
A: 3.18 µM

Q: And the GI50 (COLO 205 colon)?
A: 5.91 µM

Q: What about the TGI (COLO 205 colon) of the same compound?
A: 15.4 µM

Q: What about the GI50 (DU-145 prostate) of the same compound?
A: 5.97 µM

Q: What about the TGI (DU-145 prostate) of the same compound?
A: 14.5 µM

Q: What about the GI50 (EKVX NSCLC) of the same compound?
A: 6.9 µM

Q: And the TGI (EKVX NSCLC)?
A: 16.3 µM

Q: What about the GI50 (HCC-2998 colon) of the same compound?
A: 6.28 µM

Q: And the TGI (HCC-2998 colon)?
A: 14 µM

Q: What about the GI50 (HCT-116 colon) of the same compound?
A: 0.858 µM

Q: And the TGI (HCT-116 colon)?
A: 1.84 µM

Q: What about the GI50 (HCT-15 colon) of the same compound?
A: 1.66 µM

Q: And the TGI (HCT-15 colon)?
A: 7.33 µM

Q: What about the GI50 (HL-60(TB) leukemia) of the same compound?
A: 5.59 µM

Q: What about the TGI (HL-60(TB) leukemia) of the same compound?
A: 13.5 µM

Q: And the GI50 (HOP-62 NSCLC)?
A: 5.89 µM

Q: And the TGI (HOP-62 NSCLC)?
A: 12.9 µM

Q: What about the GI50 (HOP-92 NSCLC) of the same compound?
A: 6.91 µM

Q: And the TGI (HOP-92 NSCLC)?
A: 15.8 µM

Q: What about the GI50 (HS 578T breast) of the same compound?
A: 2.68 µM

Q: What about the TGI (HS 578T breast) of the same compound?
A: 12.5 µM

Q: What about the GI50 (HT29 colon) of the same compound?
A: 1.29 µM

Q: And the TGI (HT29 colon)?
A: 5.5 µM

Q: What about the GI50 (IGROV1 ovarian) of the same compound?
A: 9.04 µM

Q: What about the TGI (IGROV1 ovarian) of the same compound?
A: 20.4 µM

Q: What about the GI50 (K-562 leukemia) of the same compound?
A: 0.938 µM

Q: What about the TGI (K-562 leukemia) of the same compound?
A: 2.17 µM

Q: What about the GI50 (KM12 colon) of the same compound?
A: 2.25 µM

Q: And the TGI (KM12 colon)?
A: 9.23 µM

Q: What about the GI50 (LOX IMVI melanoma) of the same compound?
A: 0.969 µM

Q: And the TGI (LOX IMVI melanoma)?
A: 2.03 µM

Q: What about the GI50 (M14 melanoma) of the same compound?
A: 0.991 µM

Q: And the TGI (M14 melanoma)?
A: 2.21 µM

Q: And the GI50 (MALME-3M melanoma)?
A: 1.37 µM

Q: And the TGI (MALME-3M melanoma)?
A: 3.79 µM

Q: What about the GI50 (MCF7 breast) of the same compound?
A: 0.878 µM

Q: What about the TGI (MCF7 breast) of the same compound?
A: 2.02 µM

Q: What about the GI50 (MDA-MB-231 breast) of the same compound?
A: 6.53 µM

Q: And the TGI (MDA-MB-231 breast)?
A: 19.1 µM

Q: And the GI50 (MDA-MB-435)?
A: 1.13 µM

Q: And the TGI (MDA-MB-435)?
A: 2.82 µM

Q: What about the GI50 (MOLT-4 leukemia) of the same compound?
A: 1.02 µM

Q: What about the TGI (MOLT-4 leukemia) of the same compound?
A: 2.24 µM

Q: And the GI50 (NCI-H226 lung)?
A: 8.61 µM

Q: And the TGI (NCI-H226 lung)?
A: 20.4 µM

Q: What about the GI50 (NCI-H23 lung) of the same compound?
A: 7.61 µM

Q: What about the TGI (NCI-H23 lung) of the same compound?
A: 19.3 µM

Q: And the GI50 (NCI-H460 lung)?
A: 1.74 µM

Q: And the TGI (NCI-H460 lung)?
A: 5.88 µM

Q: And the GI50 (NCI-H522 lung)?
A: 10.1 µM

Q: And the TGI (NCI-H522 lung)?
A: 20.8 µM

Q: What about the GI50 (NCI/ADR-RES ovarian) of the same compound?
A: 9.47 µM

Q: What about the TGI (NCI/ADR-RES ovarian) of the same compound?
A: 24.2 µM

Q: What about the GI50 (OVCAR-3 ovarian) of the same compound?
A: 8.35 µM

Q: What about the TGI (OVCAR-3 ovarian) of the same compound?
A: 16.4 µM

Q: And the GI50 (OVCAR-4 ovarian)?
A: 8.09 µM

Q: What about the TGI (OVCAR-4 ovarian) of the same compound?
A: 21.9 µM

Q: What about the GI50 (OVCAR-5 ovarian) of the same compound?
A: 7.54 µM

Q: What about the TGI (OVCAR-5 ovarian) of the same compound?
A: 17 µM

Q: And the GI50 (OVCAR-8 ovarian)?
A: 10.1 µM

Q: What about the TGI (OVCAR-8 ovarian) of the same compound?
A: 25.1 µM

Q: What about the GI50 (PC-3 prostate) of the same compound?
A: 3.34 µM

Q: What about the TGI (PC-3 prostate) of the same compound?
A: 11 µM

Q: And the GI50 (RPMI-8226 leukemia)?
A: 1.17 µM

Q: What about the TGI (RPMI-8226 leukemia) of the same compound?
A: 2.65 µM

Q: And the GI50 (RXF 393 renal)?
A: 1.06 µM

Q: And the TGI (RXF 393 renal)?
A: 2.5 µM

Q: What about the GI50 (SF-268 CNS) of the same compound?
A: 6.71 µM

Q: What about the TGI (SF-268 CNS) of the same compound?
A: 18 µM

Q: What about the GI50 (SF-295 CNS) of the same compound?
A: 0.969 µM

Q: What about the TGI (SF-295 CNS) of the same compound?
A: 2.15 µM

Q: And the GI50 (SF-539 CNS)?
A: 1.92 µM

Q: And the TGI (SF-539 CNS)?
A: 8.07 µM

Q: What about the GI50 (SK-MEL-2 melanoma) of the same compound?
A: 5.17 µM

Q: What about the TGI (SK-MEL-2 melanoma) of the same compound?
A: 12.4 µM

Q: What about the GI50 (SK-MEL-28 melanoma) of the same compound?
A: 0.939 µM

Q: What about the TGI (SK-MEL-28 melanoma) of the same compound?
A: 1.91 µM

Q: And the GI50 (SK-MEL-5 melanoma)?
A: 0.964 µM

Q: What about the TGI (SK-MEL-5 melanoma) of the same compound?
A: 2.08 µM

Q: What about the GI50 (SK-OV-3 ovarian) of the same compound?
A: 7.14 µM

Q: And the TGI (SK-OV-3 ovarian)?
A: 13.8 µM

Q: What about the GI50 (SN12C renal) of the same compound?
A: 8.1 µM

Q: What about the TGI (SN12C renal) of the same compound?
A: 18.5 µM

Q: And the GI50 (SNB-19 CNS)?
A: 5.99 µM

Q: And the TGI (SNB-19 CNS)?
A: 16.4 µM

Q: What about the GI50 (SNB-75 CNS) of the same compound?
A: 5.06 µM

Q: And the TGI (SNB-75 CNS)?
A: 11.9 µM

Q: What about the GI50 (SR leukemia) of the same compound?
A: 0.929 µM

Q: And the TGI (SR leukemia)?
A: 2.48 µM

Q: What about the GI50 (SW-620 colon) of the same compound?
A: 1.27 µM

Q: What about the TGI (SW-620 colon) of the same compound?
A: 2.91 µM

Q: And the GI50 (T-47D breast)?
A: 9.33 µM

Q: What about the TGI (T-47D breast) of the same compound?
A: 22.8 µM

Q: What about the GI50 (TK-10 renal) of the same compound?
A: 8.51 µM

Q: And the TGI (TK-10 renal)?
A: 16.3 µM

Q: And the GI50 (U251 CNS)?
A: 1.33 µM

Q: What about the TGI (U251 CNS) of the same compound?
A: 6.64 µM

Q: And the GI50 (UACC-257 melanoma)?
A: 1.11 µM

Q: And the TGI (UACC-257 melanoma)?
A: 2.66 µM

Q: And the GI50 (UACC-62 melanoma)?
A: 5.65 µM

Q: And the TGI (UACC-62 melanoma)?
A: 13.8 µM

Q: What about the GI50 (UO-31 renal) of the same compound?
A: 7.38 µM

Q: What about the TGI (UO-31 renal) of the same compound?
A: 15.6 µM

Reference: PubChem BioAssay (NCI)
